Experimental data published in US20110053971A1, “NALMEFENE DI-ESTER PRODRUGS” (JANSSEN PHARMACEUTICA NV, priority 2008, published 2011).

Experiment: In vivo PK studies in dog (oral administration): plasma levels of nalmefene
Conditions: oral administration of nalmefene itself, Example C.2
Method: Doses at 10 mg/kg or 20 mg/kg body weight of a compound of formula (I) or of nalmefene itself in a solution of 20% HP-β-CD (hydroxypropyl-β-cyclodextrines) were used and orally administered to dogs.
Blood samples were taken over a period of 192 hours after oral administration. Blood samples were processed to obtain plasma. Plasma samples were analysed individually for nalmefene by means of a qualified LC-MS/MS-method.

## C=C1CC[C@@]2(O)[C@H]3Cc4ccc(O)c5c4[C@@]2(CCN3CC2CC2)[C@H]1O5 [nalmefene, 17-cyclopropylmethyl-4,5α-epoxy-6-methylenemorphinan-3,14-diol]
  time for which plasma levels of nalmefene can be measured after oral administration (in words): a few hours
